# Test results from patent US8110592B2, “Agrochemical formulations that can be dispersed in water containing polyalkoxytriglycerides as penetration enhances” (priority 2006, dated 2012).
# System: apple leaf cuticles
# Assay: Penetration of active compounds through enzymatically isolated apple leaf cuticles
# Format: in vitro ADME, apple trees of the Golden Delicious variety
# From the text: Penetration* of spirotetramate with penetrants according to the invention compared to the control without penetrant and the rapid-action uptake enhancer Genapol® X150. All penetrants employed at 0.5 g/l.
# This test measured the penetration of active compounds through enzymatically isolated cuticles of apple leaves.
# The leaves used were cut in the fully developed state from apple trees of the Golden Delicious variety. The cuticles were isolated as follows: • first of all, leaf discs labelled on the underside with dye and formed by punching were filled by means of vacuum infiltration with a pectinase solution (0.2% to 2% strength) buffered to a pH of between 3 and 4, • then sodium azide was added and • the leaf discs thus treated were left to stand until the original leaf structure broke down and the non-cellular cuticles underwent detachment.
# Thereafter only those cuticles from the top leaf sides that were free from stomata and hairs were used further. They were washed a number of times in alternation with water and with a buffer solution, pH 7. The clean cuticles obtained were, finally, applied to Teflon plaques and smoothed and dried with a gentle jet of air.
# In the next step the cuticular membranes obtained in this way were placed in stainless steel diffusion cells (transport chambers) for the purpose of membrane transport investigations. For these investigations the cuticles were placed centrally using tweezers on the edges of the diffusion cells, which were coated with silicone grease, and sealed with a ring, which was likewise greased. The arrangement was chosen so that the morphological outer side of the cuticles was directed outwards, in other words to the air, while the original inner side was facing the interior of the diffusion cell.
# The diffusion cells were filled with a 1% phospholipid suspension. Penetration was determined by applying in each case 10 μl of the spray liquor of the composition below, containing radiolabeled active compound in the stated concentrations, to the outer face of the cuticles. The spray liquor is prepared using local tap water of average hardness.
# After the spray liquors had been applied, the water was evaporated and then the chambers were inverted and placed in thermostatted troughs, in which the temperature and air humidity over the cuticles was adjustable by means of a gentle air stream onto the cuticles with the spray coating (20° C., 60% rh). At regular intervals, an autosampler took aliquots which were subjected to measurement in a scintillation counter.
# Facilitation of the penetration of various active compounds* by penetrants according to the invention exemplified by Crovol® CR70G in comparison to the control.
# [1] = with 0.5 g/l Crovol CR70G, after 24 hours
# [2] = with 0.5 g/l Crovol CR70G, after 72 hours
# [3] = without Crovol CR70G, after 24 hours
# [4] = without Crovol CR70G, after 72 hours
# [5] = spirotetramate 0.2 g/l, control without additive
SMILES,"% penetration (after hours) (apple (Malus domestica), 24 h) [%]","% penetration (after hours) (apple (Malus domestica), 48 h) [%]",% penetration (after hours) [1] [%],% penetration (after hours) [2] [%],% penetration (after hours) [3] [%],% penetration (after hours) [4] [%],"% penetration (after hours) (apple (Malus domestica), 6 h) [%]","% penetration (after hours) (apple (Malus domestica), 18 h) [%]",% penetration after 24 h [5] [%],% penetration after 3 days [5] [%]
"O=[N+]([O-])NC1=NCCN1Cc1ccc(Cl)nc1 [Imidacloprid, imidacloprid]",0.7,2.2,,,,,,,,
"CC(C)(C)C(O)(CCc1ccc(Cl)cc1)Cn1cncn1 (centres unmarked) [Tebuconazole, tebuconazole]",,,6.0,31.5,<2,<2,,,,
"CS(=O)(=O)c1ccc(C(=O)C2C(=O)CCCC2=O)c(Cl)c1COCC(F)(F)F [Tembotrione, tembotrione]",,,,,,,<1,<1,,
CCOC(=O)OC1=C(c2cc(C)ccc2C)C(=O)N[C@]12CC[C@@H](OC)CC2 [spirotetramate],,,5.8,40.5,0.1,0.3,,,0.1,0.3
